Test results taken from patent US6410533B1, “Antibacterial compounds” (Genzyme Corporation, priority 2000, dated 2002).
Converted amounts (≈) assume the structure as drawn. Like-named read-outs stand apart in the source and are kept apart here.

Experiments:
[1] = tested on: Staphylococcus aureus bacteria (ATCC 9604 SV); test: Minimal inhibitory concentration (MIC), broth microdilution; format: cell-based; conditions: 24 h at 37° C.
Procedure, shortened: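 MIC: broth microdilution per NCCLS in Mueller-Hinton broth; overnight culture adjusted to 0.05 McFarland and diluted twenty-fold into compound-containing broth. IC50: inoculum at 0.1 McFarland diluted two-fold into TB broth with compound, 3–5 h at 37° C. Turbidity at 550 nm; IC50 is the concentration giving 50% growth inhibition.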

[2] = tested on: methicillin-resistant Staphylococcus aureus (ATCC 33591); test: In vivo mouse intraperitoneal infection, mortality and % survivors over 7 days; conditions: MRSA ATCC 33591 i.p., ICR mice; for In Vivo, single dose (% of mice rescued): single dose 1 h post inoculation; for In Vivo, double dose (% of mice rescued): 1 and 5 h post inoculation
Procedure, shortened: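 Male ICR mice (20 g, 10 per group) were infected i.p. with 2-3×10^7 CFU/mouse (LD90-100) of MRSA ATCC 33591 in broth with 5% mucin. Compound in 1% cremophore EL/saline was given s.c. at 1 h, or at 1 and 5 h, post-infection. Mortality and % survivors were recorded over 7 days.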

[3] = tested on: Staphylococcus aureus bacteria (ATCC 9604 SV); test: IC50 determination, growth inhibition by turbidity at 550 nm; format: cell-based; conditions: Staphylococcus aureus ATCC 9604 SV, turbidity at 550 nm after 3-5 h at 37° C.
Experimental: Minimal inhibitory concentrations (MICs) for Staphylococcus aureus bacteria (ATCC 9604 SV) were determined by broth microdilution methodology following National Committee for Clinical Laboratory Standards. In the MIC determinations, the compounds were incorporated into Mueller-Hinton broth (Becton Dickinson Microbiology systems, Cockeyville, Md.) at a series of concentrations. After the test organism was grown overnight in TB broth, the broths were adjusted to the turbidity equivalent to 0.05 McFarland standard. The suspensions were diluted twenty-fold into the broth containing the compounds. […] In the IC50 determination, the method was modified to allow the rapid growth of the organisms. The inoculum suspensions were adjusted to 0.1 McFarland standard and then diluted two-fold into the wells containing TB broth and the compounds. After three to five hours incubation at 37° C., the turbidity was measured at 550 nm and inhibitory activity was defined as the concentration of antimicrobial agent that inhibits 50% growth of the organism in the microdilution wells.

[4] = Staphylococcus aureus ATCC 9604 SV
[5] = ATCC9604, Staphylococcus aureus ATCC 9604 SV, read-out: MIC

Compound	MIC [1, 4] [µg/mL]	In Vivo, single dose (% of mice rescued) ([2]; 2 mg/kg s.c.) [% @ 2 mg/kg]	In Vivo, single dose (% of mice rescued) ([2]; 20 mg/kg s.c.) [% @ 20 mg/kg]	IC50 [3] [nM]	MIC [1, 5] [µg/mL]	IC50 ([3]; ATCC9604) [nM]	In Vivo, double dose (% of mice rescued) ([2]; 2 × 2 mg/kg s.c.) [% @ 2 × 2 mg/kg]	In Vivo, double dose (% of mice rescued) ([2]; 2 × 20 mg/kg s.c.) [% @ 2 × 20 mg/kg]	In Vivo, single dose (% of mice rescued) ([2]; 40 mg/kg s.c.) [% @ 40 mg/kg]	In Vivo, single dose (% of mice rescued) ([2]; 80 mg/kg s.c.) [% @ 80 mg/kg]	In Vivo, single dose (% of mice rescued) ([2]; 160 mg/kg s.c.) [% @ 160 mg/kg]
CCOC(=O)c1cnn(-c2ccc(Br)cc2)c1NC(=O)Nc1cc(C(F)(F)F)cc(C(F)(F)F)c1 [Compound 94]	<0.848	0	0	261	–	–	–	–	–	–	–
Cc1cc(NC(=O)Nc2cc(C(F)(F)F)cc(C(F)(F)F)c2)n(-c2ccc(Br)cc2)n1 [Compound 95, 1-(3,5-Bis-trifluoromethyl-phenyl)-3-[2-(4-bromo-phenyl)-5-methyl-2H-pyrazol-3-yl]-urea]	–	25	25	–	< 0.761	268	–	–	–	–	–
Cc1cc(NC(=O)Nc2cc(Cl)cc(Cl)c2)n(-c2ccc(Br)cc2)n1 [Compound 96]	>22.0	0	25	967	–	–	–	–	–	–	–
CCOC(=O)c1cc(NC(=O)Nc2cc(C(F)(F)F)cc(C(F)(F)F)c2)n(-c2ccc(Br)cc2)n1 [Compound 98]	>14.1	–	–	3100	–	–	0	33	–	–	–
O=C(Nc1cc(C(F)(F)F)cc(C(F)(F)F)c1)Nc1cc(CO)nn1-c1ccc(Br)cc1 [Compound 99, 1-(3,5-Bis-trifluoromethyl-phenyl)-3-[2-(4-bromo-phenyl)-5-hydroxymethyl-2H-pyrazol-3-yl]-urea]	–	–	–	–	6.54 (≈ 12.5 µM)	4240	33	33	–	–	–
CC(C)(C)c1cc(NC(=O)Nc2cc(Cl)cc(Cl)c2)n(-c2ccc(Br)cc2)n1 [Compound 100]	<0.723	0	0	132	–	–	–	–	–	–	–
CC(C)(C)c1cc(NC(=O)Nc2cc(C(F)(F)F)cc(C(F)(F)F)c2)n(-c2ccc(Br)cc2)n1 [Compound 101]	<0.824	0	0	143	–	–	–	–	–	–	–
COCCN(CCOC)Cc1cc(NC(=O)Nc2cc(Cl)cc(Cl)c2)n(-c2ccc(Br)cc2)n1 [Compound 102]	28.6 (≈ 50.1 µM)	0	25	3520	–	–	–	–	–	–	–
COCCN(CCOC)Cc1cc(NC(=O)Nc2cc(C(F)(F)F)cc(C(F)(F)F)c2)n(-c2ccc(Br)cc2)n1 [Compound 103]	16.0 (≈ 25.1 µM)	25	25	1560	–	–	0	33	–	–	–
O=C(Nc1cc(C(F)(F)F)cc(C(F)(F)F)c1)Nc1cc(CN(CCO)CCO)nn1-c1ccc(Br)cc1 [Compound 104]	15.3 (≈ 25.1 µM)	–	–	6800	–	–	17	17	–	–	–
O=C(Nc1cc(Cl)cc(Cl)c1)Nc1cc(-c2ccccc2)nn1-c1ccc(Br)cc1 [Compound 107]	6.28 (≈ 12.5 µM)	25	12.5	121	–	–	0	17	10	10	5
O=C(Nc1cc(Cl)cc(Cl)c1)Nc1cc(-c2cccs2)nn1-c1ccc(Br)cc1 [Compound 108]	>25.4	0	0	194	–	–	–	–	–	–	–
